The source of these data is PMC10250256, “A radiohybrid theranostics ligand labeled with fluorine-18 and lutetium-177 for fibroblast activation protein-targeted imaging and radionuclide therapy” (European Journal of Nuclear Medicine and Molecular Imaging, 2023).

In series [1] the test system is HT-1080-FAP cells. Nature of the series: cell uptake in HT-1080-FAP cells. The format is cell-based, human. The method, then: (§1) The human fibrosarcoma cell lines HT-1080 and HT-1080-FAP transferred with human FAP gene were both cultured in Dulbecco modified Eagle medium supplemented with 10% fetal bovine serum (Gibco, USA) at 37℃/5% carbon dioxide. For cell uptake experiments, HT-1080-FAP cells (~ 1 × 10^5/well) or HT-1080 (~ 1 × 10^5/well) were seeded in 24-well plates for 24–48 h and incubated at 37℃ with radiolabeled compounds (74 kBq/well) in 0.5 mL of serum-free medium for indicated times. Non-specific binding was determined by co-incubating with 100 μM FAP inhibitor UAMC1110. For competitive FAP binding assays, HT-1080-FAP cells were incubated with [^177Lu]Lu-FAPI-04 (74 kBq/well) in the presence of different concentrations (10^−3–10^4 nM) of competing non-radioactive ligands. For internalization experiments, the radiotracer-incubated cells were washed twice with PBS (pH 7.4), followed by glycine–HCl (0,05 M, pH = 2.8) solution to distinguish between cell surface–bound (acid-releasable) and internalized (acid-resistant) radioligand. For efflux experiments, cells were preincubated with [^177Lu]21 or [^177Lu]Lu-FAPI-04 for 1 h and subsequently incubated at 37 °C in a medium free of radiotracer and serum for different time periods. The medium was removed and the cells were washed twice with cold PBS (pH 7.4) and subsequently lysed with 0.5 mL of NaOH (1 M). Cell lysates were collected and the radioactivity was determined using a γ-counter.

For the next series, the system named is HT-1080 cells. Kind of series: cell uptake in HT-1080 (FAP negative) cells. The format is cell-based, human. The method, then:
as §1, with “The medium was removed and the cells were washed twice with cold PBS (pH 7.4) and subsequently lysed with 0.5 mL of NaOH (1 M).” left out

Series [2] concerns HT-1080-FAP cells. Kind of series: efflux experiments in HT-1080-FAP cells. The format is cell-based, human. To be noted: preincubated 1 h, up to 4 h. The method, then:
as §1, with “The medium was removed and the cells were washed twice with cold PBS (pH 7.4) and subsequently lysed with 0.5 mL of NaOH (1 M).” left out

In series [3] the test system is HT-1080-FAP cells. Nature of the series: internalization experiments in HT-1080-FAP cells. The class given is cell-based, human. To be noted: 10 min. On the procedure:
as §1, with “The medium was removed and the cells were washed twice with cold PBS (pH 7.4) and subsequently lysed with 0.5 mL of NaOH (1 M).” left out

A further series has as its system HT-1080-FAP xenograft. Kind of series: SPECT imaging, HT-1080-FAP xenograft. The format is in vivo, BALB/C-nu/nu mice. To be noted: about 37 MBq i.v. The method, then:
All animal experiments were conducted in compliance with a protocol approved by the First Affiliated Hospital of Sun Yat-sen University Institutional Animal Care and Use Committee. BALB/C-nu/nu mice (4–5-week old with body weight of 16–22 g) were purchased from GemPharmatech Co., Ltd. Mice were housed under standard conditions with temperature and light control (12-h-light/12-h-dark cycle) and had free access to water and food. For the tumor model, HT-1080-FAP or HT-1080 cells (5 × 10^6) were subcutaneously injected into the right or left flank of nude mice, respectively. As the tumor diameter reached 3–4 mm, mice were treated with radioligands. Micro-PET and SPECT imaging studies, as well as biodistribution, were conducted when the tumor diameter reached 5–10 mm.
The mice bearing HT-1080-FAP or HT-1080 xenografts were injected with about 37 MBq of [^177Lu]21 via the tail vein, and SPECT (Siemens, Symbia Intevo Bold, Germany) was performed at 2 h to 8 d after injection. The SPECT parameters were as follows: medium-energy collimator, energy peaks of 113 and 208 keV, matrix of 256 × 256, and scan duration of 10 min.

For `CC(C)(C)[Si](F)(c1ccc(C(=O)NCC(NC(=O)CCC(C(=O)O)N2CCN(CC(=O)[O-])CCN(CC(=O)[O-])CCN(CC(=O)[O-])CC2)C(=O)NCC2CCC(C(=O)NCCCOc3ccc4nccc(C(=O)NCC(=O)N5CC(F)(F)CC5C#N)c4c3)CC2)cc1)C(C)(C)C.[177Lu+3]` (centres unmarked) [[^177Lu]21], the cell uptake in the series with HT-1080-FAP cells [1] (1 h incubation) is given as 72.53% ± 3.43; with HT-1080-FAP cells [1] (24 h incubation) it was 45.06% ± 2.62. Besides, the “cell uptake with competitor” value with HT-1080-FAP cells [1] (co-incubation with 100 μM FAP inhibitor UAMC1110) was “could be blocked by FAP inhibitor”. Besides, the “cell uptake in FAP negative cells” value in the series on HT-1080 cells is recorded as “Almost no uptakes”. The efflux result in the series on HT-1080-FAP cells [2] is “slower excretion up to 4 h than [^177Lu]Lu-FAPI-04”. Moreover, in the series on HT-1080-FAP cells [3], the internalization rate is above 80%. In addition, the “time pi up to which high accumulation was observed (SPECT)” value with HT-1080-FAP xenograft is given as “up to 144 h”. Also, the “time up to which tumor uptake could be visualized (SPECT)” value in the series on HT-1080-FAP xenograft was “up to 6 days”.
